Laboratory results published in publication PMC6722837, “Multiple Modulation of Acid-Sensing Ion Channel 1a by the Alkaloid Daurisoline” (Biomolecules, 2019).

Target: T1, ASIC1a (acid-sensing ion channel 1a) (Rattus norvegicus, UniProt P55926)
T1 construct: gene Asic1; rat ASIC1a isoform expressed in Xenopus laevis oocytes
T1 sequence (P55926 1-526): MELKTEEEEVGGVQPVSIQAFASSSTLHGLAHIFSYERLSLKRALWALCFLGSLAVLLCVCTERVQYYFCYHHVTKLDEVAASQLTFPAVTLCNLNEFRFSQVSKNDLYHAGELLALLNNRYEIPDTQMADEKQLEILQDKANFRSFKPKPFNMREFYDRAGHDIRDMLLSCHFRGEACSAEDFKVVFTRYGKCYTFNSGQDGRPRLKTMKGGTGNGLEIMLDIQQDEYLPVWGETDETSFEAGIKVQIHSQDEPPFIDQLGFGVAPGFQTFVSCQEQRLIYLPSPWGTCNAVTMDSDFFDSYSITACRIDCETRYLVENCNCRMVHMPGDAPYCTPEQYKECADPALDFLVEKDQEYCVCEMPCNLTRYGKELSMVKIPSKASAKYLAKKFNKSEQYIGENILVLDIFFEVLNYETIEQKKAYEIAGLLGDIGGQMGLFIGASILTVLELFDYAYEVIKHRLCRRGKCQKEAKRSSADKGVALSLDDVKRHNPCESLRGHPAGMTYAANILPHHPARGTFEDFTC
Test: two-electrode voltage clamp in Xenopus oocytes; second peak of the pH […].5-evoked current at conditioning pH […]
Format: cell-based

Q: For `COc1cc2c(cc1O)[C@@H](Cc1ccc(O)c(Oc3ccc(C[C@@H]4c5cc(OC)c(OC)cc5CCN4C)cc3)c1)N(C)CC2` [DAU, daurisoline], which EC50 is on record?
A: 23 ± 3 µM
